Source: US8802597B2, “Herbicidal pyrimidines” (E I du Pont de Nemours and Company, priority 2003, dated 2014)
Where two headings read alike, the source gives them in different places.

Columns and labels:
Assay in all cases: Test A pre/postemergence
Type in all cases: in vivo
[1] = test system: morningglory (Ipomoea spp.); conditions: for pest or weed control at 125 g/ha / pest or weed control at 500 g/ha: Ipomoea, 240 h, read-out: Plant response rating, Morningglory
Experimental: (§1) Seeds of barnyardgrass (Echinochloa crus-galli), crabgrass (Digitaria sanguinalis), giant foxtail (Setaria faberi), morningglory (Ipomoea spp.), redroot pigweed (Amaranthus retroflexus) and velvetleaf (Abutilon theophrasti) were planted into a blend of loam soil and sand and treated preemergence with a directed soil spray using test chemicals formulated in a non-phytotoxic solvent mixture which included a surfactant. At the same time these species were also treated with postemergence applications of test chemicals formulated in the same manner.
(§2) Plants ranged in height from 2 to 10 cm and were in the 1- to 2-leaf stage for the postemergence treatment. Treated plants and untreated controls were maintained in a greenhouse for approximately ten days, after which time all treated plants were compared to untreated controls and visually evaluated for injury. Plant response ratings, summarized in Table A, are based on a 0 to 100 scale where 0 is no effect and 100 is complete control. A dash (-) response means no test results.

[2] = test system: barnyardgrass (Echinochloa crus-galli); conditions: for pest or weed control at 125 g/ha / pest or weed control at 500 g/ha: Echinochloa crus-galli, 240 h, read-out: Plant response rating, Barnyardgrass
Experimental: as §1, §2

[3] = test system: velvetleaf (Abutilon theophrasti); conditions: for pest or weed control at 125 g/ha / pest or weed control at 500 g/ha: Abutilon theophrasti, 240 h, read-out: Plant response rating, Velvetleaf
Experimental: as §1, §2

[4] = test system: crabgrass (Digitaria sanguinalis); conditions: for pest or weed control at 125 g/ha / pest or weed control at 500 g/ha: Digitaria sanguinalis, 240 h, read-out: Plant response rating, Crabgrass
Experimental: as §1, §2

[5] = test system: redroot pigweed (Amaranthus retroflexus); conditions: for pest or weed control at 125 g/ha / pest or weed control at 500 g/ha: Amaranthus retroflexus, 240 h, read-out: Plant response rating, Pigweed
Experimental: as §1, §2

[6] = test system: giant foxtail (Setaria faberi); conditions: for pest or weed control at 125 g/ha / pest or weed control at 500 g/ha: Setaria faberi, 240 h, read-out: Plant response rating, Foxtail, Giant
Experimental: as §1, §2

[7] = post-emergence, Postemergence, 125 g ai/ha, 0 to 100 scale (0 no effect, 100 complete control)
[8] = post-emergence, Postemergence, 500 g ai/ha, 0 to 100 scale (0 no effect, 100 complete control)
[9] = pre-emergence, Preemergence, 125 g ai/ha, 0 to 100 scale where 0 is no effect and 100 is complete control, approximately ten days
[10] = pre-emergence, Preemergence, 500 g ai/ha, 0 to 100 scale where 0 is no effect and 100 is complete control, approximately ten days
[11] = Postemergence, 125 g ai/ha, 0 to 100 scale (0 no effect, 100 complete control)
[12] = Postemergence, 500 g ai/ha, 0 to 100 scale (0 no effect, 100 complete control)
[13] = Preemergence, 125 g ai/ha, 0 to 100 scale where 0 is no effect and 100 is complete control, approximately ten days
[14] = Preemergence, 500 g ai/ha, 0 to 100 scale where 0 is no effect and 100 is complete control, approximately ten days

Structure (SMILES): CCOC(=O)c1nc(-c2ccc3ccccc3c2)nc(N)c1Cl [Compound 127]
- pest or weed control at 125 g/ha [1, 7]: 0%
- pest or weed control at 500 g/ha [1, 8]: 0%
- pest or weed control at 125 g/ha [1, 9]: 0%
- pest or weed control at 500 g/ha [1, 10]: 0%
- pest or weed control at 125 g/ha [2, 7]: 0%
- pest or weed control at 500 g/ha [2, 8]: 0%
- pest or weed control at 125 g/ha [2, 9]: 0%
- pest or weed control at 500 g/ha [2, 10]: 0%
- pest or weed control at 125 g/ha [3, 7]: 60%
- pest or weed control at 500 g/ha [3, 8]: 80%
- pest or weed control at 125 g/ha [3, 9]: 0%
- pest or weed control at 500 g/ha [3, 10]: 0%
- pest or weed control at 125 g/ha [4, 7]: 0%
- pest or weed control at 500 g/ha [4, 8]: 0%
- pest or weed control at 125 g/ha [4, 9]: 0%
- pest or weed control at 500 g/ha [4, 10]: 0%
- pest or weed control at 125 g/ha [5, 7]: 0%
- pest or weed control at 500 g/ha [5, 8]: 10%
- pest or weed control at 125 g/ha [5, 9]: 0%
- pest or weed control at 500 g/ha [5, 10]: 0%
- pest or weed control at 125 g/ha [6, 7]: 0%
- pest or weed control at 500 g/ha [6, 8]: 0%
- pest or weed control at 125 g/ha [6, 9]: 0%
- pest or weed control at 500 g/ha [6, 10]: 0%

Structure (SMILES): COC(=O)c1nc(-c2cccc(C)c2)nc(N)c1Cl [Compound 97]
- Plant response rating, Morningglory [1, 11]: 45
- Plant response rating, Morningglory [1, 12]: 50
- Plant response rating, Morningglory [1, 13]: 0
- Plant response rating, Morningglory [1, 14]: 0
- Plant response rating, Barnyardgrass [2, 11]: 30
- Plant response rating, Barnyardgrass [2, 12]: 10
- Plant response rating, Barnyardgrass [2, 13]: 0
- Plant response rating, Barnyardgrass [2, 14]: 0
- Plant response rating, Velvetleaf [3, 11]: 60
- Plant response rating, Velvetleaf [3, 12]: 70
- Plant response rating, Velvetleaf [3, 13]: 45
- Plant response rating, Velvetleaf [3, 14]: 50
- Plant response rating, Crabgrass [4, 11]: 0
- Plant response rating, Crabgrass [4, 12]: 0
- Plant response rating, Crabgrass [4, 13]: 15
- Plant response rating, Crabgrass [4, 14]: 25
- Plant response rating, Pigweed [5, 11]: 10
- Plant response rating, Pigweed [5, 12]: 30
- Plant response rating, Pigweed [5, 13]: 25
- Plant response rating, Pigweed [5, 14]: 70
- Plant response rating, Foxtail, Giant [6, 11]: 0
- Plant response rating, Foxtail, Giant [6, 12]: 0
- Plant response rating, Foxtail, Giant [6, 13]: 5
- Plant response rating, Foxtail, Giant [6, 14]: 5

Structure (SMILES): COC(=O)COc1nc(-c2ccc(Cl)cc2)nc(N)c1Cl [Compound 119]
- Plant response rating, Morningglory [1, 11]: 40
- Plant response rating, Morningglory [1, 12]: 35
- Plant response rating, Morningglory [1, 13]: 0
- Plant response rating, Morningglory [1, 14]: 0
- Plant response rating, Barnyardgrass [2, 11]: 0
- Plant response rating, Barnyardgrass [2, 12]: 5
- Plant response rating, Barnyardgrass [2, 13]: 0
- Plant response rating, Barnyardgrass [2, 14]: 10
- Plant response rating, Velvetleaf [3, 11]: 0
- Plant response rating, Velvetleaf [3, 12]: 10
- Plant response rating, Velvetleaf [3, 13]: 0
- Plant response rating, Velvetleaf [3, 14]: 0
- Plant response rating, Crabgrass [4, 11]: 0
- Plant response rating, Crabgrass [4, 12]: 0
- Plant response rating, Crabgrass [4, 13]: 0
- Plant response rating, Crabgrass [4, 14]: 0
- Plant response rating, Pigweed [5, 11]: 25
- Plant response rating, Pigweed [5, 12]: 45
- Plant response rating, Pigweed [5, 13]: 0
- Plant response rating, Pigweed [5, 14]: 0
- Plant response rating, Foxtail, Giant [6, 11]: 0
- Plant response rating, Foxtail, Giant [6, 12]: 0
- Plant response rating, Foxtail, Giant [6, 13]: 0
- Plant response rating, Foxtail, Giant [6, 14]: 0

Structure (SMILES): Nc1nc(C2CC2)nc(OCC(=O)[O-])c1Cl.[Na+] [Compound 116]
- Plant response rating, Morningglory [1, 11]: 40
- Plant response rating, Morningglory [1, 12]: 60
- Plant response rating, Morningglory [1, 13]: 30
- Plant response rating, Morningglory [1, 14]: 50
- Plant response rating, Barnyardgrass [2, 11]: 0
- Plant response rating, Barnyardgrass [2, 12]: 0
- Plant response rating, Barnyardgrass [2, 13]: 10
- Plant response rating, Barnyardgrass [2, 14]: 20
- Plant response rating, Velvetleaf [3, 11]: 15
- Plant response rating, Velvetleaf [3, 12]: 40
- Plant response rating, Velvetleaf [3, 13]: 0
- Plant response rating, Velvetleaf [3, 14]: 15
- Plant response rating, Crabgrass [4, 11]: 0
- Plant response rating, Crabgrass [4, 12]: 0
- Plant response rating, Crabgrass [4, 13]: 0
- Plant response rating, Crabgrass [4, 14]: 10
- Plant response rating, Pigweed [5, 11]: 20
- Plant response rating, Pigweed [5, 12]: 35
- Plant response rating, Pigweed [5, 13]: 30
- Plant response rating, Pigweed [5, 14]: 50
- Plant response rating, Foxtail, Giant [6, 11]: 0
- Plant response rating, Foxtail, Giant [6, 12]: 0
- Plant response rating, Foxtail, Giant [6, 13]: 0
- Plant response rating, Foxtail, Giant [6, 14]: 0

Structure (SMILES): CCCOC(=O)c1nc(-c2ccc(Cl)cc2)nc(N)c1Cl [Compound 105]
- Plant response rating, Morningglory [1, 11]: 50
- Plant response rating, Morningglory [1, 12]: 70
- Plant response rating, Morningglory [1, 13]: 0
- Plant response rating, Morningglory [1, 14]: 0
- Plant response rating, Barnyardgrass [2, 11]: 10
- Plant response rating, Barnyardgrass [2, 12]: 25
- Plant response rating, Barnyardgrass [2, 13]: 0
- Plant response rating, Barnyardgrass [2, 14]: 0
- Plant response rating, Velvetleaf [3, 11]: 85
- Plant response rating, Velvetleaf [3, 12]: 95
- Plant response rating, Velvetleaf [3, 13]: 0
- Plant response rating, Velvetleaf [3, 14]: 0
- Plant response rating, Crabgrass [4, 11]: 20
- Plant response rating, Crabgrass [4, 12]: 45
- Plant response rating, Crabgrass [4, 13]: 0
- Plant response rating, Crabgrass [4, 14]: 0
- Plant response rating, Pigweed [5, 11]: 65
- Plant response rating, Pigweed [5, 12]: 90
- Plant response rating, Pigweed [5, 13]: 0
- Plant response rating, Pigweed [5, 14]: 0
- Plant response rating, Foxtail, Giant [6, 11]: 10
- Plant response rating, Foxtail, Giant [6, 12]: 10
- Plant response rating, Foxtail, Giant [6, 13]: 0
- Plant response rating, Foxtail, Giant [6, 14]: 0
